Results as given in patent US20080153822A1, “Methods of treating pain” (priority 2006, published 2008).

Experiments:
[1] = test system: CDKs; conditions: Current Opinion in Pharmacology, 2003(3): 362-370; cited from earlier work
[2] = test system: TNFα; test: LPS in vivo assay (model of cytokine repression in vivo); set-up: species or system mice; conditions: 30 mg/kg single p.o. dose 30 min prior to LPS; blood serum 90 min after LPS; ELISA; FIG. 3
Procedure: For the LPS induced model of septic shock, mice receive an intraperitoneal (i.p.) injection of 30 μg bacterial Lipopolysaccharide (LPS; L2630 SIGMA) in saline. Said LPS-mediated initiation of the inflammatory signalling cascade results in increasing blood serum concentrations of cytokines such as e.g. TNFα, IL-6 and IL1β. Blood can be taken from these animals at defined time points. Thereafter, serum will be separated and the samples can be stored at −80° C. until cytokine concentrations are measured using commercial ELISA assays. (A L Moreira et al., Braz J Med Biol Res 1997; 30:1199-1207).
Wildtype mice (strain C3HeB/FeJ) (age, sex and weight matched) were injected with 30 μg LPS (SIGMA) intraperitoneally. 90 minutes after LPS administration, these animals were anaesthetized with 0.1 ml/10 g bodyweight Ketamine-Rompun (50/20 mg/ml) and blood for serum preparation was taken via cardiac puncture.
Pharmacological treatment groups (n=4) of LPS mice received per os (p.o.) injections of CDK-inhibiting compounds or the vehicle (negative control), respectively. […]
Serum concentrations of TNF alpha and IL6 within the samples were measured by using commercial ELISA Kits (Natutec) according to the manufacturers instructions. […]

[3] = test system: LPS induced THP-1 macrophages; test: In vitro THP-1 assay (LPS-induced cytokine expression); type: cell-based, human
Procedure: The human THP-1 cell line can be utilized as an in vitro model of cytokine expression as mediated by Lipopolysaccharide (LPS) or Tumor Necrosis Factorα [TNFα].
Monocytic THP-1 cells (ATCC; TIB-202) can be differentiated into macrophage-like cells expressing pro-inflammatory cytokines like TNFα, IL6 and IL10 upon induction with LPS or by TNFα (autocrine induction) itself.
THP-1 cells are grown in modified RPMI-1640 medium (ATCC, Cat. No. 30-2001) supplemented with 10% FCS and 1% Pen/Strep. For cytokine inhibition assays, cells are seeded at a density of 5×10^5 cells/ml into 6-well plates in standard growth medium supplemented with 100 ng/ml PMA (Sigma, P1585) to induce differentiation into macrophage-like cells. After 24 hours, the medium is replaced with standard growth medium (without PMA) and the cells are incubated for another 48 hours to complete differentiation.
After 72 h of differentiation, the medium is replaced with serum free growth medium, and CDK-inhibiting compounds as well as reference compounds such as positive and negative controls, each dissolved in DMSO are added at concentrations ranging from 0.5 to 5 μM (final concentration of DMSO in the well is 0.1%). Cells are incubated for 60 min with compounds prior to stimulation with 100 ng/ml LPS (Sigma, L2630) for another 4-48 hours. Supernatants are collected and assayed immediately for cytokine expression, e.g. for TNFα, IL-6 and IL-1β using commercially available sandwich ELISA assays (eBioscience, Cat. No 88-7346, 88-7066, 88-7010) or kept frozen at […] until evaluation.
Concentrations of TNFα, IL6 and IL1β within the cell culture supernatants are measured by using commercial ELISA Kits (eBioscience) according to the manufacturer's instructions.
Compound #133 was administered to differentiated THP-1 cells in triplicates as described above (see section 2.). After 60 min of pre-incubation with test or reference compound (a p38 inhibitor and an IKK-inhibitor, respectively) alone, cells were stimulated with LPS. […]

[4] = test system: TNF α; test: In vitro human whole blood assay (cytokine inhibition); type: cell-based; conditions: for TNF α levels reduced: human whole blood
Procedure: […]. For this purpose, human heparinised whole blood from healthy donors was diluted 1:5 with medium (RPMI 1640, e.g. ATCC #30-2001, supplemented with 4.5 g/L glucose, 4 mM L-glutamine, pyruvate, 1250 U sodium-heparin and 1% Penicillin/Streptomycin), incubated with the anti-inflammatory compound or solvent for 30-60 minutes and then stimulated with 20 ng/ml to 1 μg/ml LPS or SEB for 3 to 48 hours. Supernatants were harvested and analysed for cytokine content, e.g. by ELISA.

[5] = biological target: T1, CDK9/CycT (Homo sapiens, UniProt P50750); test: In vitro kinase inhibition assay; type: biochemical; conditions: 1 μM ATP, 33P FlashPlate assay
T1 construct: host or cells: Sf9 insect cells, baculovirus
Procedure: IC50 profiles of the compounds according to general Formula I or Ia of the present invention can be determined for cyclin-dependent kinases CDK2/CycA, CDK4/CycD1, CDK6/CycD1 and CDK9/CycT in enzymatic kinase inhibition assays in vitro. IC50 values as obtained in these assays are used for evaluating the specific selectivity and potency of the compounds with respect to CDK9 inhibition.
Compounds are used as 1×10^−2 M stock solutions in 100% DMSO, 100 μl each in column 2 of three 96-well V-shaped microtiterplates (in the following, said plates are referred to as “master plates”). […]
For the determination of inhibitory profiles, the following 4 protein kinases are used: CDK2/CycA, CDK4/CycD1, CDK6/CycD1 and CDK9/CycT. […] The purity of each kinase is determined by SDS-PAGE/silver staining and the identity of each kinase is verified by western blot analysis with kinase specific antibodies or by mass spectroscopy. […]
Reaction mixtures are incubated at 30° C. for 80 minutes. […] Incorporation of ^33P is determined with a microplate scintillation counter (Microbeta, Wallac).
The median value of the counts in column 1 (n=8) of each assay plate is defined as “low control”. This value reflects unspecific binding of radioactivity to the plate in the absence of a protein kinase but in the presence of the substrate. […]

T1 sequence (P50750 whole entry): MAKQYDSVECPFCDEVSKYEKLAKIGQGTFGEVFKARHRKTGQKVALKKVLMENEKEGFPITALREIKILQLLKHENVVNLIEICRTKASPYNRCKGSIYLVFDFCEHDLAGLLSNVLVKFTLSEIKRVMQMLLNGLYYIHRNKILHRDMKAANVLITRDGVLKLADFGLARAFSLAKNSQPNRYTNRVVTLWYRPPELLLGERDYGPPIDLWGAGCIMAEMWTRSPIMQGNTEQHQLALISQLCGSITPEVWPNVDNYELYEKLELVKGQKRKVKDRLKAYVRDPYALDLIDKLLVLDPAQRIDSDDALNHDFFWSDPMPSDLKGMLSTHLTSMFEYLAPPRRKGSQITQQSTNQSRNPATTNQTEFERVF
T1 sequence (O60563 whole entry partner): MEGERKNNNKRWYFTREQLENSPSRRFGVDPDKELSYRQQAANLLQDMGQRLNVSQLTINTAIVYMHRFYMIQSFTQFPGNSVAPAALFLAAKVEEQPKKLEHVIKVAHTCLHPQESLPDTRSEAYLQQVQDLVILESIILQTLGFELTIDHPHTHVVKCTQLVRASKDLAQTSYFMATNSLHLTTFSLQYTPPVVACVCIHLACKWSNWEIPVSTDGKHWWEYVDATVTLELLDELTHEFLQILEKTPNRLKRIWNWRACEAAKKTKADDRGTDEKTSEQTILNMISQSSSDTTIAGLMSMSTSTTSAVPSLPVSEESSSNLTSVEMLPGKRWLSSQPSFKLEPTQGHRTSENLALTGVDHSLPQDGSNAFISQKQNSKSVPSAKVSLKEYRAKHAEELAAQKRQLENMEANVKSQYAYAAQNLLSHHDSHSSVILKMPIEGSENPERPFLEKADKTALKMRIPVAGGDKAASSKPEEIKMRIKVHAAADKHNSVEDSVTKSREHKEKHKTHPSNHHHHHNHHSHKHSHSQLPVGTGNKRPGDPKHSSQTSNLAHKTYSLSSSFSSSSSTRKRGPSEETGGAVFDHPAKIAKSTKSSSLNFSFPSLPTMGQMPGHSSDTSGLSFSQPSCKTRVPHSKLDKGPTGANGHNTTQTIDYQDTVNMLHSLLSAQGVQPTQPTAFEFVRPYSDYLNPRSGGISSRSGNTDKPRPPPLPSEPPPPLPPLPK

In the case of `CC[C@H](CO)Nc1nc(NCc2ccccc2)c2ncn(C(C)C)c2n1` [roscovitine], the “inhibitory activity against CDKs 4 and 6” value [1] is given as “no inhibitory activity” and the “selectivity for a specific CDK” value [1] is given as “greater selectivity for CDKs 1, 2 and 5”.

In the case of `COc1ccccc1-c1ccnc(Nc2cccc(S(C)(=O)=O)c2)n1` [Compound #133], the “reduction of LPS-induced TNFα level (signalα signal) compared to the DMSO vehicle control” value [2] is reported as 50%, the “signalα signal compared to the DMSO (vehicle control)” value ([3]; at each concentration, FIG. 4) is reported as “significantly reduced” and the “effect on TNFα and IL6 protein concentration in the cell supernatant versus vehicle (DMSO)” value ([3]; differentiated THP-1 cells, 60 min pre-incubation, LPS 4-48 h) is reported as “significant inhibitory effect”. The “reduction of LPS-induced cytokine levels (TNFα, IL6, IL1β)” value ([3]; differentiated THP-1 cells, LPS 100 ng/ml, supernatant ELISA, FIG. 4) was “up to 100%”, the “TNF α levels reduced” value ([4]; 0.3 μM) was 15% and the “TNF α levels reduced” value ([4]; 3 μM) was 60%. The “TNF α levels reduced” value ([4]; 10 μM) was 85%, the “TNF α levels reduced” value ([4]; 30 μM) was 94% and the IC50 ([4]; Homo sapiens, deduced from the % reduction data) was under 3000 nM. For the same compound, the IC50 [5] was 37.6 nM.

For `CN1CC[C@H](c2c(O)cc(O)c3c(=O)cc(-c4ccccc4Cl)oc23)[C@H](O)C1` [Flavopiridol], the “selectivity for a specific CDK” value [1] is given as “not particularly selective for a specific CDK”.

For `CCn1cnc2c(Nc3cccc(Cl)c3)nc(N[C@@H]3CCCC[C@@H]3N)nc21` [CGP74514A], the “inhibitory activity against CDKs 4 and 6” value [1] is given as “no inhibitory activity” and the “selectivity for a specific CDK” value [1] is given as “greater selectivity for CDKs 1, 2 and 5”.

In the case of purvanolols, the “inhibitory activity against CDKs 4 and 6” value [1] is listed as “no inhibitory activity” and the “selectivity for a specific CDK” value [1] is listed as “greater selectivity for CDKs 1, 2 and 5”.
